Here are results for 23 compounds from patent US10179782B2, “Substituted sulfonamide compounds” (Genentech, Inc., priority 2016, dated 2019).

The structures appear in SMILES notation.

T1 sequence (O75762 whole entry): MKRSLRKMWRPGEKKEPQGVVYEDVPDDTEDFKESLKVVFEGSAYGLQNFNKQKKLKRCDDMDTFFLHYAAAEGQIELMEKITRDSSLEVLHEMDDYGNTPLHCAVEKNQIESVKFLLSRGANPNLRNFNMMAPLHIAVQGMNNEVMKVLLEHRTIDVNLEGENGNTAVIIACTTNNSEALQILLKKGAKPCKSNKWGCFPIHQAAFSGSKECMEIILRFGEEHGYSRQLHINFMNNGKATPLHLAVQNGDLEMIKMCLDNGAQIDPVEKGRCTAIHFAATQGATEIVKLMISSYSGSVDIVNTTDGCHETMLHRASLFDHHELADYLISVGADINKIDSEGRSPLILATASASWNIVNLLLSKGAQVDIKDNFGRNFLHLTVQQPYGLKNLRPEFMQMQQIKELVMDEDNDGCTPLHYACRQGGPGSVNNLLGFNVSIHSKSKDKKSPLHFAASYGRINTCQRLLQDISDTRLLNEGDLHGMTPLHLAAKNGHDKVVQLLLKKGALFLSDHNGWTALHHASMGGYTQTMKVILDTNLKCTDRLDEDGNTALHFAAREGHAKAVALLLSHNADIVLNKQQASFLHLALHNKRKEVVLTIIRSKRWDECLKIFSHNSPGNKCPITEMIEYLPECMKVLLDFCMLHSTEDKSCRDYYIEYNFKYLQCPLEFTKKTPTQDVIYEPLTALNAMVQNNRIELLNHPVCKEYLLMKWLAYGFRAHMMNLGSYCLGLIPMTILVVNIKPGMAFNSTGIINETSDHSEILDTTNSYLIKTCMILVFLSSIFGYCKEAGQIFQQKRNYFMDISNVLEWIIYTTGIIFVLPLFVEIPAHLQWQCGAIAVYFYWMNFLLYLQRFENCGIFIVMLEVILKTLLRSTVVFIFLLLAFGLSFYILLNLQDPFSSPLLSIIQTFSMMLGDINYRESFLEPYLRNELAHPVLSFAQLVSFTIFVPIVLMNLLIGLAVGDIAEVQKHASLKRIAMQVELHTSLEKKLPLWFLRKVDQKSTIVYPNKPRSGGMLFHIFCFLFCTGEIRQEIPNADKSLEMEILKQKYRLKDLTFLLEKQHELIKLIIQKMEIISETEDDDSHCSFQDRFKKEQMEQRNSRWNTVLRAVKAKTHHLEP

The first assay concerns the target T1, human TRPA1 (Homo sapiens, UniProt O75762).
T1 construct: expressed in transfected cells; host or cells: CHO cells
Description: TRPA1 FLIPR Tetra calcium influx assay in CHO cells (block of cinnamaldehyde-induced calcium influx). To be noted: Table 1; CHO cells expressing TRPA1; agonist cinnamaldehyde 75 uM; with vs without substituent at R2/R3; read-out: hTRPA1 CHO Ca2+ AUC EVO (IC50). The assay is classed as cell-based. The procedure: IC50s (effective concentration) of compounds on the human and rat TRPA1 channels were determined using a FLIPR Tetra instrument. CHO cells expressing TRPA1 were plated into 384-well plates, incubated overnight at 37 C, and loaded with BD calcium indicator dye for 1 hr at 37° C. followed by 15 minutes at room temperature. The assay buffer was Hank's Balanced Salt Solution (HBSS) containing 20 mM HEPES (pH readjusted to 7.4) along with 0.02% BSA.
Following dye load and plate cool down, compounds were added to the cells using FLIPR Tetra. Plates were then incubated with compounds for 20 minutes at room temperature prior to adding agonist. Following this incubation, ˜EC80 concentration of cinnamaldehyde (75 uM for human TRPA1 and 45 uM for rat TRPA1) was added to active the channels and block of cinnamaldehyde induced calcium influx was measured.
IC50s were fit with a standard Hill function, keeping the Hill coefficient (n) fixed to 1.5. Fixing the Hill coefficient will generally reduce variability of the IC50 determination. The IC50s were individually examined to make sure the MIN and MAX points were set correctly prior to validation of the results.
Broadly, the IC50 is the concentration at which inhibition is half-maximal. With `O=C(NCc1ccnc(-c2cnc(C(F)(F)F)nc2)c1)[C@@H]1C[C@@H](F)CN1S(=O)(=O)c1ccc(F)cc1` [(2S,4R)-4-fluoro-1-(4-fluorophenyl)sulfonyl-N-[[2-[2-(trifluoromethyl)pyrimidin-5-yl]-4-pyridyl]methyl]pyrrolidine-2-carboxamide, reference compound], the IC50 is 129 nM. As for `O=C(NCc1cc(-c2cnc(C(F)(F)F)nc2)ncc1F)[C@@H]1C[C@@H](F)CN1S(=O)(=O)c1ccc(F)cc1` [(2S,4R)-4-fluoro-1-(4-fluorophenyl)sulfonyl-N-[[5-fluoro-2-[2-(trifluoromethyl)pyrimidin-5-yl]-4-pyridyl]methyl]pyrrolidine-2-carboxamide, reference compound], the IC50 stood at 26.7 nM. The same measure, in the same setting: with `O=C(NCc1cc(-c2cnc(C(F)(F)F)nc2)ncn1)[C@@H]1C[C@@H](F)CN1S(=O)(=O)c1ccc(F)cc1` [(2S,4R)-4-fluoro-1-(4-fluorophenyl)sulfonyl-N-[[6-[2-(trifluoromethyl)pyrimidin-5-yl]pyrimidin-4-yl]methyl]pyrrolidine-2-carboxamide, reference compound] the figure was 251 nM; with `O=C(NCc1cc(-c2cnc(C(F)(F)F)nc2)c(Cl)cn1)[C@@H]1C[C@@H](F)CN1S(=O)(=O)c1ccc(F)cc1` [(2S,4R)-N-[[5-chloro-4-[2-(trifluoromethyl)pyrimidin-5-yl]-2-pyridyl]methyl]-4-fluoro-1-(4-fluorophenyl)sulfonyl-pyrrolidine-2-carboxamide, reference compound], 42.2 nM.

The assay is the same for the next values; noted with them: Table 2; CHO cells expressing TRPA1; agonist cinnamaldehyde 75 uM; 20 min compound incubation; Hill coefficient fixed to 1.5; read-out: hTRPA1 CHO Ca2+ AUC EVO (IC50).
Consider `O=C(NCc1cc(-c2cnc(C(F)(F)F)nc2)ncc1F)[C@@H]1[C@H]2C[C@H]2CN1S(=O)(=O)c1ccc(F)cc1` (single isomer, unassigned) [Example 68], for which the concentration for half-maximal inhibition (IC50) was 14.6 nM.

Take `O=C(NCc1ccc(F)c(-c2cnc(C(F)(F)F)nc2)c1)[C@H]1[C@@H]2C[C@@H]2CN1S(=O)(=O)c1ccc(F)cc1` (stereo in doubt) [Example 70, (1S,4R,5R)-3-(4-fluorophenyl)sulfonyl-N-[[4-fluoro-3-[2-(trifluoromethyl)pyrimidin-5-yl]phenyl]methyl]-3-azabicyclo[3.1.0]hexane-4-carboxamide]: the IC50 stood at 11.3 nM.

Turning to `O=C(NCc1cc(-c2cnc(C(F)(F)F)nc2)ncc1F)[C@H]1[C@@H]2C[C@@H]2CN1S(=O)(=O)c1ccc(F)cc1` (stereo in doubt) [Example 79, (1S,4R,5R)-3-(4-fluorophenyl)sulfonyl-N-[[5-fluoro-2-[2-(trifluoromethyl)pyrimidin-5-yl]-4-pyridyl]methyl]-3-azabicyclo[3.1.0]hexane-4-carboxamide], the IC50 was 14.6 nM. On the same count and under the same terms, for `C[C@H]1[C@H](F)C[C@@H](C(=O)NCc2cc(-c3cnc(C(F)(F)F)nc3)ncc2F)N1S(=O)(=O)c1cccc(Cl)c1` (stereo in doubt) [Example 91, (2S,4R,5S)-1-(3-chlorophenyl)sulfonyl-4-fluoro-N-[[5-fluoro-2-[2-(trifluoromethyl)pyrimidin-5-yl]-4-pyridyl]methyl]-5-methyl-pyrrolidine-2-carboxamide] the value was 20 nM; for `C[C@H]1[C@H](F)C[C@@H](C(=O)NCc2cc(-c3cnc(C(F)(F)F)nc3)ncc2F)N1S(=O)(=O)c1ccc(Cl)c(Cl)c1` (stereo in doubt) [Example 92, (2S,4R,5S)-1-(3,4-dichlorophenyl)sulfonyl-4-fluoro-N-[[5-fluoro-2-[2-(trifluoromethyl)pyrimidin-5-yl]-4-pyridyl]methyl]-5-methyl-pyrrolidine-2-carboxamide], 8.69 nM. On the same count and under the same terms, for `C[C@H]1[C@H](F)C[C@@H](C(=O)NCc2cc(-c3cnc(C(F)(F)F)nc3)ncc2F)N1S(=O)(=O)c1ccc(F)cc1` [Example 1, (2S,4R,5S)-4-fluoro-N-([5-fluoro-2-[2-(trifluoromethyl)pyrimidin-5-yl]pyridin-4-yl]methyl)-1-[(4-fluorobenzene)sulfonyl]-5-methylpyrrolidine-2-carboxamide] the value was 1.91 nM; for `C[C@H]1[C@H](C#N)C[C@@H](C(=O)NCc2cc(-c3cnc(C(F)(F)F)nc3)ccc2F)N1S(=O)(=O)c1ccc(F)cc1` [Example 2, (2S,4R,5S)-4-cyano-N-([2-fluoro-5-[2-(trifluoromethyl)pyrimidin-5-yl]phenyl]methyl)-1-[(4-fluorobenzene)sulfonyl]-5-methylpyrrolidine-2-carboxamide], 7.46 nM; for `C[C@H]1CC[C@@H](C(=O)NCc2cc(Cl)nc(-c3cnc(C(F)(F)F)nc3)c2)N1S(=O)(=O)c1ccc(F)cc1` [Example 3, (2S,5S)—N-([2-chloro-6-[2-(trifluoromethyl)pyrimidin-5-yl]pyridin-4-yl]methyl)-1-[(4-fluorobenzene)sulfonyl]-5-methylpyrrolidine-2-carboxamide], 1.12 nM. As for `O=C(NCc1cc(-c2cnc(C(F)(F)F)nc2)ncn1)[C@@H]1CCC2(CC2)N1S(=O)(=O)c1ccc(F)cc1` [Example 4, (5S)-4-[(4-fluorobenzene)sulfonyl]-N-([6-[2-(trifluoromethyl)pyrimidin-5-yl]pyrimidin-4-yl]methyl)-4-azaspiro[2.4]heptane-5-carboxamide], the IC50 worked out at 71.2 nM. For the compound `C[C@H]1[C@H](F)C[C@@H](C(=O)NCc2ccc(F)c(-c3cnc(C(F)(F)F)nc3)c2)N1S(=O)(=O)c1ccc(F)cc1` [Example 5, (2S,4R,5S)-4-fluoro-1-(4-fluorophenyl)sulfonyl-N-[[4-fluoro-3-[2-(trifluoromethyl)pyrimidin-5-yl]phenyl]methyl]-5-methyl-pyrrolidine-2-carboxamide], the IC50 came to 3.77 nM. As for `COc1nn(-c2cnc(C(F)(F)F)nc2)cc1CNC(=O)[C@@H]1C[C@@H](F)[C@H](C)N1S(=O)(=O)c1ccc(F)cc1` [Example 6, (2S,4R,5S)-4-fluoro-1-(4-fluorophenyl)sulfonyl-N-[[3-methoxy-1-[2-(trifluoromethyl)pyrimidin-5-yl]pyrazol-4-yl]methyl]-5-methyl-pyrrolidine-2-carboxamide], the IC50 amounted to 9.62 nM. On the same count and under the same terms, with `C[C@H]1[C@H](F)C[C@@H](C(=O)NCc2cn(-c3cnc(C(F)(F)F)nc3)nc2C(F)F)N1S(=O)(=O)c1ccc(F)cc1` [Example 7, (2S,4R,5S)-N-[[3-(difluoromethyl)-1-[2-(trifluoromethyl)pyrimidin-5-yl]pyrazol-4-yl]methyl]-4-fluoro-1-(4-fluorophenyl)sulfonyl-5-methyl-pyrrolidine-2-carboxamide] the figure was 26.2 nM; with `C[C@H]1[C@H](F)C[C@@H](C(=O)NCc2cc(-c3cnc(C(F)(F)F)nc3)ncn2)N1S(=O)(=O)c1ccc(F)cc1` [Example 8, (2S,4R,5S)-4-fluoro-1-(4-fluorophenyl)sulfonyl-5-methyl-N-[[6-[2-(trifluoromethyl)pyrimidin-5-yl]pyrimidin-4-yl]methyl]pyrrolidine-2-carboxamide], 17.3 nM.

`O=C(NCc1cc(-c2cnc(C(F)(F)F)nc2)ncn1)[C@@H]1CC[C@H](C(F)(F)F)N1S(=O)(=O)c1ccc(F)cc1` [Example 9, (2S,5R)-1-(4-fluorophenyl)sulfonyl-5-(trifluoromethyl)-N-[[6-[2-(trifluoromethyl)pyrimidin-5-yl]pyrimidin-4-yl]methyl]pyrrolidine-2-carboxamide]: the IC50 amounted to 42.2 nM.

As for `C[C@H]1[C@H](F)C[C@@H](C(=O)NCc2cc(Cl)nc(-c3cnc(C(F)(F)F)nc3)c2)N1S(=O)(=O)c1ccc(F)cc1` [Example 10, (2S,4R,5S)-N-[[2-chloro-6-[2-(trifluoromethyl)pyrimidin-5-yl]-4-pyridyl]methyl]-4-fluoro-1-(4-fluorophenyl)sulfonyl-5-methyl-pyrrolidine-2-carboxamide], the IC50 came to 2.26 nM.

As to `C[C@H]1CC[C@@H](C(=O)NCc2cc(-c3cnc(C(F)(F)F)nc3)nc(-c3cnc(C(F)(F)F)nc3)c2)N1S(=O)(=O)c1ccc(F)cc1` [Example 11, (2S,5S)-N-[[2,6-bis[2-(trifluoromethyl)pyrimidin-5-yl]-4-pyridyl]methyl]-1-(4-fluorophenyl)sulfonyl-5-methyl-pyrrolidine-2-carboxamide], the IC50 worked out at 3.17 nM. With `C[C@H]1[C@H](F)C[C@@H](C(=O)NCc2cc(-c3cnc(C(F)(F)F)nc3)ncc2Cl)N1S(=O)(=O)c1ccc(F)cc1` [Example 12, (2S,4R,5S)-N-[[5-chloro-2-[2-(trifluoromethyl)pyrimidin-5-yl]-4-pyridyl]methyl]-4-fluoro-1-(4-fluorophenyl)sulfonyl-5-methyl-pyrrolidine-2-carboxamide], the IC50 worked out at 2.94 nM. On the same count and under the same terms, with `O=C(NCc1ccnc(-c2cnc(C(F)(F)F)nc2)c1)[C@@H]1C[C@@H]2C[C@@H]2N1S(=O)(=O)c1ccc(F)cc1` [Example 13, (1S,3S,5S)-2-(4-fluorophenyl)sulfonyl-N-[[2-[2-(trifluoromethyl)pyrimidin-5-yl]-4-pyridyl]methyl]-2-azabicyclo[3.1.0]hexane-3-carboxamide] the figure was 23 nM; with `C[C@H]1[C@H](F)C[C@@H](C(=O)NCc2cc(-c3cnc(C(F)(F)F)nc3)ccc2F)N1S(=O)(=O)c1ccc(F)cc1` [Example 14, (2S,4R,5S)-4-fluoro-1-(4-fluorophenyl)sulfonyl-N-[[2-fluoro-5-[2-(trifluoromethyl)pyrimidin-5-yl]phenyl]methyl]-5-methyl-pyrrolidine-2-carboxamide], 2.14 nM.
